Source: patent US20230382915A1, “GCN2 AND PERK KINASE INHIBITORS AND METHODS OF USE THEREOF” (Deciphera Pharmaceuticals, LLC, priority 2021, published 2023)

Key:
[1] = system: Follicular lymphoma cells; assay: Cell proliferation, combination with standard of care, follicular lymphoma; format: cell-based; details: with 41 nM ibrutinib, 96 h, FIG. 6D; read-out: inhibition of cell proliferation IC50, combination treatment
Procedure: H929, RPMI8226, GA-10 and DoHH-2 cells (catalog #CRL-9068) were obtained from the American Type Culture Collection (ATTC, Manassas, VA). H929 Cells were maintained in RPMI-1640 medium supplemented with 20% heat-inactivated fetal bovine serum (catalog #A3840002, ThermoFisher Scientific, Waltham, MA), 1% Penicillin/Streptomycin/L-Glutamine (catalog #10378016, ThermoFisher Scientific, Waltham, MA), and 0.05 mM 2-mercaptoethanol (catalog #21985-023, ThermoFisher Scientific, Waltham, MA). […]
For cell proliferation assay appropriate number of cells (Forty thousand cells for H929. Twenty thousand cells for RPMI8226 and GA-10. Eight thousand cells for DoHH-2) were seeded per well in 200 μL in respective medium were dispensed into a 96-well black clear bottom plate. […] Plates were read on a Synergy2 or equivalent reader (Biotek, Winooski VT) using an excitation of 540 nm and an emission of 600 nm. At the end of the incubation of DoHH-2, cell viability was determined using CellTiter-Glo® assay (Promega, Madison, WI). Luminescence was measured using EnVision MultiLabel Reader (PerkinElmer, Waltham, MA). Data was analyzed using GraphPad Prism software (GraphPad, San Diego, CA) to calculate IC50 values.

[2] = target: Recombinant GCN2 (EIF2AK4) (Homo sapiens (Human), UniProt Q9P2K8); assay: Recombinant GCN2 activation assay; format: biochemical; details: FIG. 9A
Procedure: Recombinant GCN2 (EIF2AK4) (Carna Biosciences, Japan) was dephosphorylated by incubating with 16,000 units of lambda phosphatase (New England Biolabs, Ipswich, MA) for 3 h at 30° C. in 1×phosphatase reaction buffer. To measure Compound 2-mediated GCN2 modulation, 12.5 nM dephosphorylated GCN2 diluted in Kinase buffer (Invitrogen, Carlsbad, CA) was incubated with Compound 2 titer for 30 min at RT. Following incubation, 130 nM substrate (GFP-eIF2α) (ThermoFisher Scientific, Waltham, MA) and 0.05 mM ATP was added to the mixture and incubated for 60 min at RT. Reaction was stopped by the addition of 10 mM EDTA and phosphorylated eiF2a substrate was detected using 2 nM LanthaScreen Tb-anti-peIF2α (pSer52) antibody (ThermoFisher Scientific, Waltham, MA) then incubated in the dark. After a 60 min incubation at room temperature, TR-FRET was monitored using an excitation wavelength of 340 nm and emission wavelengths of 490 nm and 520 nm.

[3] = system: ATF4 in H929 multiple myeloma cells; assay: H929 ATF4 ELISA assay; format: cell-based
Procedure: H929 multiple myeloma cells (catalog #CRL-9068) were obtained from the American Type Culture Collection (ATTC, Manassas, VA). Briefly, cells were grown in RPMI-1640 medium supplemented with 20% heat-inactivated fetal bovine serum (catalog #A3840002, ThermoFisher Scientific, Waltham, MA), 1% Penicillin/Streptomycin/L-Glutamine (catalog #10378016, ThermoFisher Scientific, Waltham, MA), and 0.05 mM 2-mercaptoethanol (catalog #21985-023, ThermoFisher Scientific, Waltham, MA) at 37° C., 5% CO2, and 95% humidity. Cells were expanded until reaching one million five hundred thousand cells per mL at which time they were sub-cultured or harvested for assay use. One million five hundred thousand cells per well in 1 mL complete growth medium were dispensed into 12-well plates and incubated overnight. A serial dilution of test compound was added, and cells were incubated at 37° C., 5% CO2, and 95% for four hours. Cells were lysed then ATF4 levels were measured using an ELISA assay (Proteintech, Rosemont, IL). Absorbance is measured at 450 nm and 544 nM using a Synergy2 or equivalent reader (Biotek, Winooski VT). Data were analyzed using PRISM software (Graphpad, San Diego, CA) to calculate fold stimulation of cellular ATF4 relative to vehicle treated control.

Sequence of Recombinant GCN2 (EIF2AK4) (Q9P2K8 whole entry): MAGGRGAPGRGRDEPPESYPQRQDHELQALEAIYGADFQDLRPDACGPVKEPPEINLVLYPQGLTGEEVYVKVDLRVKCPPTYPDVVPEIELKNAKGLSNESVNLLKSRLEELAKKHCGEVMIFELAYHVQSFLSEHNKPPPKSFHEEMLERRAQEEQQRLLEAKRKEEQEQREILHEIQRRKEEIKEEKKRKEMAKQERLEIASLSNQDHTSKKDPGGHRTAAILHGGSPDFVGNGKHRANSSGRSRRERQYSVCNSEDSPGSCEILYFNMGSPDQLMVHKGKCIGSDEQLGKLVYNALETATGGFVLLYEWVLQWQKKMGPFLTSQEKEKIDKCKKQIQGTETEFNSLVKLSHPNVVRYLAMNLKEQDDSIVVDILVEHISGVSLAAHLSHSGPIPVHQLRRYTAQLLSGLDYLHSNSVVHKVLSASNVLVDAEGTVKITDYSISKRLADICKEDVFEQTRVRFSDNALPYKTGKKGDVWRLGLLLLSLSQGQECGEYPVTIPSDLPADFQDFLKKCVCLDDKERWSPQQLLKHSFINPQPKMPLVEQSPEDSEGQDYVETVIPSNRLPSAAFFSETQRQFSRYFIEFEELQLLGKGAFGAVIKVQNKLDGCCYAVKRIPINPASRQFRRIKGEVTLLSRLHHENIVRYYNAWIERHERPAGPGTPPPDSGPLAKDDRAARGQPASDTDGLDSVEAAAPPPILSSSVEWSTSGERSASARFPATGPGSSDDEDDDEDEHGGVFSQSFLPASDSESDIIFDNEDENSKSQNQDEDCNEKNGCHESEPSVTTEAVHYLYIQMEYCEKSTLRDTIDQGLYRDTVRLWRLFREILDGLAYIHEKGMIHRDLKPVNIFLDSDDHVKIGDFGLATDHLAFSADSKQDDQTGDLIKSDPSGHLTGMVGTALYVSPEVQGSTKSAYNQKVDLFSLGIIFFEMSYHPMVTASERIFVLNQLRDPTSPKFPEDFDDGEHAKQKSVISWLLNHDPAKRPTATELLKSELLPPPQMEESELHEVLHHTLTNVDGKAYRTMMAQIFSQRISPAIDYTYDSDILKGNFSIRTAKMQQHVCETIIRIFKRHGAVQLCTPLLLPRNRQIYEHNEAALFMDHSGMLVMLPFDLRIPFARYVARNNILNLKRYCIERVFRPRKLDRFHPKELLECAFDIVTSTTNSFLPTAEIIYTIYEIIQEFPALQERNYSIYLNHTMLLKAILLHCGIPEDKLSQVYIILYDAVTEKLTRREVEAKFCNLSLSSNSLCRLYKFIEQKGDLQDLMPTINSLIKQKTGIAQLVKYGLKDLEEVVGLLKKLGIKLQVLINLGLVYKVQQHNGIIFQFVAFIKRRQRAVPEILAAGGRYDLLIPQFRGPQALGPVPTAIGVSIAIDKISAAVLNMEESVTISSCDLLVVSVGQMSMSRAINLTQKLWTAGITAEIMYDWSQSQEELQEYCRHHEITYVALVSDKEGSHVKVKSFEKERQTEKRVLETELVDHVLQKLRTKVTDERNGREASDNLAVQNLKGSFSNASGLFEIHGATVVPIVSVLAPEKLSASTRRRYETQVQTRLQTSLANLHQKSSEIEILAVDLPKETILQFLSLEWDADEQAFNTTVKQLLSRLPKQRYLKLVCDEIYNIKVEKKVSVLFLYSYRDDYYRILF

`Cn1cc(-c2cccc(NS(=O)(=O)c3cc(Cl)cc(CO)c3Cl)c2F)c2c(N)ncnc21` [Example 2, N-(3-(4-amino-7-methyl-7H-pyrrolo[2,3-d]pyrimidin-5-yl)-2-fluorophenyl)-2,5-dichloro-3-(hydroxymethyl)benzenesulfonamide] was tested, and the IC50 [1] was 4 nM, the “concentrations at which GCN2 enzyme is activated” value [2] was 0.05 to 3 nM and the “concentrations at which recombinant GCN2 activity is inhibited” value [2] was “above 10 nM”. For the same compound, the “activation of GCN2 enzyme, % of control” value ([2]; at 0.05-3 nM) was “up to 250 % of control”, the “concentration at which maximum ATF4 stimulation occurred” value ([3]; FIG. 1) was “around 41 nM” and the “maximum stimulation in ATF4 signal” value ([3]; FIG. 1) was 13 fold. The “concentrations at which ATF4 expression reverted to basal levels” value ([3]; FIG. 1, inhibitory phase) was ≥ 370 nM and the “H929 NS ATF4 ELISA (ATF4 stim)” value ([3]; four hours, relative to vehicle treated control) was “+++ (an ATF4 stim greater than 10 fold and less than or equal to 20 fold)”.
